In publication PMC3238500 (Archives of biochemistry and biophysics, 2011):

Molecular target: pyruvate carboxylase R472S mutant (RePC) (Rhizobium etli, UniProt Q2K340, R472S)
Assay type: biochemical

CC(=O)SCCNC(=O)CCNC(=O)[C@H](O)C(C)(C)COP(=O)(O)OP(=O)(O)OC[C@H]1O[C@@H](n2cnc3c(N)ncnc32)[C@H](O)[C@@H]1OP(=O)(O)O [acetyl CoA]
Ka (activation constant): 1.65 ± 0.05 mM
